How the values were obtained:
BRD4(BD1) = BRD4(BD1) (Homo sapiens (Human), UniProt O60885); assay: In vitro enzyme inhibition assay (BRD4 AlphaScreen); assay type: binding
Method in brief: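 His-tagged BRD4 tested by AlphaScreen for binding of biotinylated H4K5/8/12/16-tetraacetyl peptide. After 20 min at room temperature, streptavidin donor and nickel chelate acceptor beads added (5 μg/mL final each). IC50 determined.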

[1] = system: Raji, human Burkitts lymphoma cells; assay: Cell-MTS proliferation assay, Raji; assay type: cell-based; conditions: Homo sapiens, 168 hr
Method in brief: (§1)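 Seeded for ~90% confluence at 7 days (Raji 15,000, HL-60 5,000, NCI-H460 3,000 cells/well); compound added 24 h post-plating as 11-point dilution, 100 μM to 2.0 nM final.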

[2] = system: HL-60, human proleukemia cells; assay: Cell-MTS proliferation assay, HL-60; assay type: cell-based; conditions: Homo sapiens, 168 hr
Method in brief: as §1

[3] = system: NCI-H460, human non-small cell lung cancer cells; assay: Cell-MTS proliferation assay, NCI-H460; assay type: cell-based; conditions: Homo sapiens, 168 hr
Method in brief: as §1

[4] = in vitro enzyme inhibition assay
[5] = Cell-MTS proliferation, Raji cells
[6] = Cell-MTS proliferation, HL-60 cells
[7] = Cell-MTS proliferation, NCI-H460 cells
[8] = NCI-H460, Cell-MTS proliferation
[9] = Raji, Cell-MTS, class symbols A/B/C
[10] = HL-60, Cell-MTS, class symbols A/B/C
[11] = NCI-H460, Cell-MTS, class symbols A/B/C

SMILES	IC50 (BRD4(BD1); [4]) [nM]	IC50 [1, 5] [nM]	IC50 [2, 6] [nM]	IC50 [3, 7] [nM]	IC50 ([1]; Raji, Cell-MTS proliferation) [nM]	IC50 ([2]; HL-60, Cell-MTS proliferation) [nM]	IC50 [3, 8] [nM]	IC50 (BRD4(BD1); class symbols A/B/C) [nM]	IC50 [1, 9] [nM]	IC50 [2, 10] [nM]	IC50 [3, 11] [nM]
CCS(=O)(=O)Nc1ccc(Oc2ccc(F)cc2F)c(-c2cc(C)c(=O)n(C)c2)c1 [Example 472, N-[4-(2,4-difluorophenoxy)-3-(1,5-dimethyl-6-oxopyridin-3-yl)phenyl]ethanesulfonamide]	< 500	< 500	< 500	> 5000	–	–	–	–	–	–	–
Cc1cc(-c2cc(NS(C)(=O)=O)ccc2Oc2ccc(F)cc2F)cn(C)c1=O [Example 102, N-[4-(2,4-difluorophenoxy)-3-(1,5-dimethyl-6-oxopyridin-3-yl)phenyl]methanesulfonamide]	–	–	–	–	–	–	–	< 500	< 500	< 500	> 5000
CCS(=O)(=O)c1ccc(OCC2CC2)c(-c2cn(C)c(=O)c3sc(C(N)=O)cc23)c1 [Example 265, 4-[2-(cyclopropylmethoxy)-5-ethylsulfonylphenyl]-6-methyl-7-oxothieno[2,3-c]pyridine-2-carboxamide]	< 500	–	–	–	< 500	< 500	> 5000	–	–	–	–
Cn1cc(-c2ccc3c(=O)n(C)cc(-c4nc(NS(C)(=O)=O)ncc4OCC4CC4)c3c2)cn1 [Example 154, N-[5-(cyclopropylmethoxy)-4-[2-methyl-6-(1-methylpyrazol-4-yl)-1-oxoisoquinolin-4-yl]pyrimidin-2-yl]methanesulfonamide]	< 500	–	–	–	< 500	< 500	> 5000	–	–	–	–
Cc1cccc(C)c1COc1cc(-c2cc(C)c(=O)n(C)c2)cc(S(C)(=O)=O)c1 [Example 331, 5-[3-[(2,6-dimethylphenyl)methoxy]-5-methylsulfonylphenyl]-1,3-dimethylpyridin-2-one]	< 500	–	–	–	500 to 5000	< 500	> 5000	–	–	–	–
CCS(=O)(=O)Nc1ccc(OCC2CC2)c(-c2cn(C)c(=O)c3sc(C(N)=O)cc23)c1 [Example 266, 4-[2-(cyclopropylmethoxy)-5-(ethylsulfonylamino)phenyl]-6-methyl-7-oxothieno[2,3-c]pyridine-2-carboxamide]	< 500	–	–	–	< 500	< 500	> 5000	–	–	–	–
Cn1cc(-c2cc(S(C)(=O)=O)ccc2Oc2ccc(F)cc2F)cc(F)c1=O [Example 120, 5-[2-(2,4-difluorophenoxy)-5-methylsulfonylphenyl]-3-fluoro-1-methylpyridin-2-one]	–	–	–	–	–	–	–	500 to 5000	> 5000	500 to 5000	> 5000

The next lines start with the values.

IC50 (BRD4(BD1); [4]) [nM]	IC50 [1, 5] [nM]	IC50 [2, 6] [nM]	IC50 [3, 7] [nM]	IC50 ([1]; Raji, Cell-MTS proliferation) [nM]	IC50 ([2]; HL-60, Cell-MTS proliferation) [nM]	IC50 [3, 8] [nM]	IC50 (BRD4(BD1); class symbols A/B/C) [nM]	IC50 [1, 9] [nM]	IC50 [2, 10] [nM]	IC50 [3, 11] [nM]	SMILES
< 500	–	–	–	500 to 5000	< 500	> 5000	–	–	–	–	Cc1cc(-c2cc(OCc3ccccc3)cc(S(C)(=O)=O)c2)cn(C)c1=O [Example 324, 1,3-dimethyl-5-(3-methylsulfonyl-5-phenylmethoxyphenyl)pyridin-2-one]
–	–	–	–	–	–	–	< 500	< 500	< 500	> 5000	CCS(=O)(=O)Nc1ccc(Oc2ccc(F)cc2F)c(-c2cc(C(F)(F)F)c(=O)n(C)c2)c1 [Example 138, N-[4-(2,4-difluorophenoxy)-3-[1-methyl-6-oxo-5-(trifluoromethyl)pyridine-3-yl]phenyl]ethanesulfonamide]
< 500	500 to 5000	500 to 5000	> 5000	–	–	–	–	–	–	–	Cc1cc(-c2cc(S(C)(=O)=O)ccc2OC2CCOC2)cn(C)c1=O (stereo not drawn) [Example 426, 1,3-dimethyl-5-[5-methylsulfonyl-2-(oxolan-3-yloxy)phenyl]pyridin-2-one]
–	–	–	–	–	–	–	500 to 5000	500 to 5000	500 to 5000	> 5000	Cn1cc(-c2cc(S(C)(=O)=O)ccc2OCC2CC2)cc(F)c1=O [Example 119, 5-[2-(cyclopropylmethoxy)-5-methylsulfonylphenyl]-3-fluoro-1-methylpyridin-2-one]
–	–	–	–	–	–	–	< 500	< 500	< 500	> 5000	CCS(=O)(=O)Nc1ccc(Oc2ccc(F)cc2F)c(-c2cn(C)c(=O)c3cnccc23)c1 [Example 57, N-[4-(2,4-difluorophenoxy)-3-(2-methyl-1-oxo-2,7-naphthyridin-4-yl)phenyl]ethanesulfonamide]
